According to ChEMBL document CHEMBL1127857, “Antitumor agents. 155. Synthesis and biological evaluation of 3',6,7-substituted 2-phenyl-4-quinolones as antimicrotubule agents” (J Med Chem, 1994):

Assays:
[1] = test system: K562; assay: Tested for in vitro tumor cell growth inhibition of leukemia cell line K-562; assay type: functional; details: Homo sapiens
[2] = test system: SK-MEL-5; assay: Tested for in vitro tumor cell growth inhibition of melanoma cell line SK-Mel-5; assay type: functional; details: Homo sapiens
[3] = test system: OVCAR-4; assay: Tested for in vitro tumor cell growth inhibition of ovarian cancer cell line OVCAR-4; assay type: functional; details: Homo sapiens
[4] = biological target: Tubulin (Bos taurus, UniProt Q6B856+Q862L2+Q862F3); assay: Inhibition of bovine tubulin polymerization; assay type: functional
[5] = test system: SF-268; assay: Tested for in vitro tumor cell growth inhibition of CNS tumor cell line SF-268; assay type: functional; details: Homo sapiens
[6] = test system: KM-20L2; assay: Tested for in vitro tumor cell growth inhibition of colon cancer cell line […]; assay type: functional; details: Homo sapiens
[7] = test system: HCT-116; assay: Tested for in vitro tumor cell growth inhibition of colon cancer cell line HCT116; assay type: functional; details: Homo sapiens
[8] = biological target: Tubulin (Bos taurus) (UniProt Q6B856+Q862L2+Q862F3); assay: Inhibition of colchicine binding to tubulin was evaluated only when polymerization IC50 <=1.0 uM; assay type: protein assay
[9] = test system: RXF 393; assay: Tested for in vitro tumor cell growth inhibition of renal cancer cell line RXF-393; assay type: functional; details: Homo sapiens
[10] = test system: NCI-H226; assay: Tested for in vitro tumor cell growth inhibition of non-small cell lung cancer cell line NCI-H226; assay type: functional; details: Homo sapiens
[11] = test system: SF-295; assay: Tested for in vitro tumor cell growth inhibition of CNS tumor cell line SF-295; assay type: functional; details: Homo sapiens
[12] = test system: DU-145; assay: Tested for in vitro tumor cell growth inhibition of prostate cancer cell line DU-145; assay type: functional; details: Homo sapiens
[13] = test system: MDA-N; assay: Tested for in vitro tumor cell growth inhibition of breast cancer cell line MDA-N; assay type: functional; details: Homo sapiens
[14] = test system: OVCAR-3; assay: Tested for in vitro tumor cell growth inhibition of ovarian cancer cell line OVCAR-3; assay type: functional; details: Homo sapiens

Compound | GI50 [1] [µM] | GI50 [2] [µM] | GI50 [3] [µM] | IC50 [4] [µM] | GI50 [5] [µM] | GI50 [6] [µM] | GI50 [7] [µM] | inhibition [8] [%] | GI50 [9] [µM] | GI50 [10] [µM] | GI50 [11] [µM] | GI50 [12] [µM] | GI50 [13] [µM] | GI50 [14] [µM]
Nc1cccc(-c2cc(O)c3cc4c(cc3n2)OCO4)c1 | 0.891 | 0.933 | 38.9 | 0.73 | 0.759 | 0.708 | 0.479 | 16 | 0.603 | 2.19 | 2.4 | – | – | –
COc1cccc(-c2cc(O)c3cc4c(cc3n2)OCO4)c1 | – | – | – | 0.57 | – | – | – | 39 | – | – | – | – | – | –
COc1cccc(-c2cc(O)c3cc(N4CCN(C)CC4)ccc3n2)c1 | 0.537 | 0.912 | > 10 | 14 | 1.86 | 1.51 | 0.437 | – | 0.457 | 1.51 | 1.82 | 2.51 | 0.2 | –
Oc1cc(-c2cccc(F)c2)nc2cc3c(cc12)OCO3 | 0.339 | 0.269 | – | 0.53 | 0.661 | – | 0.219 | 51 | – | 0.955 | 0.141 | – | – | 0.288
COc1cccc(-c2cc(O)c3cc(N4CCOCC4)ccc3n2)c1 | 0.0246 | 0.0355 | 6.31 | 0.36 | 0.0537 | 0.0339 | 0.0269 | 43 | – | 0.0339 | 0.049 | 0.0437 | 0.00832 | 0.0199
CNc1cccc(-c2cc(O)c3cc4c(cc3n2)OCO4)c1 | 0.398 | 0.447 | – | 0.65 | 5.5 | 0.331 | 0.245 | 17 | 0.363 | 0.537 | 0.324 | – | – | 0.339
CCOc1cccc(-c2cc(O)c3cc4c(cc3n2)OCO4)c1 | 0.0447 | 0.191 | – | 0.47 | 0.269 | 0.182 | 0.174 | 40 | 0.275 | 0.324 | 0.0646 | 0.251 | 0.0178 | 0.166
Oc1cc(-c2cccc(Br)c2)nc2cc3c(cc12)OCO3 | 3.47 | 4.37 | > 100 | 0.53 | 3.02 | 3.09 | 3.39 | 26 | 2.4 | 3.8 | 0.331 | – | – | 4.27
COc1cccc(-c2cc(O)c3cc(N(C)C)ccc3n2)c1 | 0.00891 | 0.0257 | 5.5 | 0.38 | 0.0437 | 0.00457 | – | 14 | 0.0186 | 0.0447 | 0.0155 | 0.0347 | 0.0017 | 0.0151
COc1cccc(-c2cc(O)c3cc(NC(C)=O)ccc3n2)c1 | – | – | – | 2.1 | 5.5 | – | – | – | – | – | – | – | – | –
COc1cc([C@@H]2c3cc4c(cc3[C@H](O)[C@H]3COC(=O)[C@H]23)OCO4)cc(OC)c1OC | – | – | – | – | – | – | – | 84 | – | – | – | – | – | –
Oc1cc(-c2ccccc2)nc2cc3c(cc12)OCO3 | – | – | – | 0.63 | – | – | – | 26 | – | – | – | – | – | –
CC(=O)Nc1ccc2nc(-c3cccc(F)c3)cc(O)c2c1 | – | – | – | – | 25.7 | – | – | – | – | – | 38.9 | – | – | –
Nc1ccc2nc(-c3cccc(C(F)(F)F)c3)cc(O)c2c1 | – | – | – | > 40 | – | 34.7 | 52.5 | – | – | – | – | 43.7 | – | –
CC(=O)Nc1ccc2nc(-c3cccc(Cl)c3)cc(O)c2c1 | – | – | > 100 | 2.3 | – | – | – | – | – | – | – | – | – | –
COc1cccc(-c2cc(O)c3cc(N)ccc3n2)c1 | – | – | – | 8.7 | – | 3.47 | – | – | – | – | – | – | – | –
Oc1cc(-c2cccc(OCc3ccccc3)c2)nc2cc3c(cc12)OCO3 | 0.363 | 0.282 | – | 0.45 | 12.9 | 0.224 | 0.389 | 26 | 0.407 | 0.229 | 0.447 | 1.1 | 0.145 | 0.245
Oc1cc(-c2cccc(Cl)c2)nc2cc3c(cc12)OCO3 | – | 0.209 | > 75.9 | 0.37 | – | 0.269 | – | 45 | – | – | – | – | – | –
Oc1cc(-c2cccc(C(F)(F)F)c2)nc2cc3c(cc12)OCO3 | – | – | – | 0.82 | – | 1.38 | – | 5 | – | – | – | – | – | –
Oc1cccc(-c2cc(O)c3cc4c(cc3n2)OCO4)c1 | 0.724 | 1.48 | – | 0.47 | 2.29 | 3.31 | 1.82 | 26 | – | – | 5.5 | – | – | –
COc1ccc(CCc2cc(OC)c(OC)c(OC)c2)cc1O | – | – | – | 0.63 | – | – | – | – | – | – | – | – | – | –
COc1cccc(-c2cc(O)c3cc(N4CCCC4)ccc3n2)c1 | < 0.001 | < 0.001 | 2 | – | < 0.001 | < 0.001 | < 0.001 | – | < 0.001 | < 0.001 | < 0.001 | < 0.001 | < 0.001 | < 0.001
COc1cccc(-c2cc(O)c3cc(Cl)ccc3n2)c1 | – | – | – | 0.7 | – | – | – | 16 | – | – | – | – | – | –
Oc1cc(-c2cccc(OC(F)(F)F)c2)nc2cc3c(cc12)OCO3 | 0.0363 | 0.17 | 0.0257 | 0.5 | – | 0.0363 | 0.0141 | 40 | 0.0407 | 0.195 | 0.0257 | 0.0457 | < 0.01 | 0.0631
Nc1ccc2nc(-c3cccc(Cl)c3)cc(O)c2c1 | – | – | > 100 | 6.1 | – | 3.16 | – | – | – | – | – | – | – | –
Oc1cc(-c2cccc(OC(F)(F)F)c2)nc2ccc(N3CCCC3)cc12 | – | – | – | 0.72 | – | – | – | 58 | – | – | – | – | – | –
CN(C)c1cccc(-c2cc(O)c3cc4c(cc3n2)OCO4)c1 | – | – | – | 0.7 | – | – | – | 29 | – | – | – | – | – | –
